In US20060258639A1, “Therapeutic combinations for the treatment or prevention of psychotic disorders” (Wyeth, priority 2005, published 2006):

What was measured:
Type in all cases: in vivo
[1] = tested on: apomorphine-induced climbing; assay: apomorphine-induced climbing in mice, Compound 1 alone or with haloperidol (Experiment 1); conditions: for ED50: Mus musculus, sc, apomorphine 1 mg/kg s.c., read-out: ED50 for apomorphine block
Procedure: (§1) Using (7-(2,6-dichlorophenyl)-5-fluoro-2,3-dihydrobenzofuran-2-yl)methanamine (Compound 1) as an example, the present Example describes two experiments in which a compound of formula I, was administered in combination with either a typical (exemplified by haloperidol) or atypical (exemplified by clozapine). The combination reduced apomorphine-induced climbing without side effects.
(§2) Mice were acclimated to the climbing cages for at least 1 hour and then dosed with either the vehicle or a dose of haloperidol or clozapine followed by a dose of either vehicle or a dose of Compound 1. Thirty minutes after dosing all mice received 1 mg/kg s.c. apomorphine and returned to the climbing cages. Five minutes after apomorphine the mice were observed and scored for climbing and stereotypy every 5 minutes for the 30 minute test session.

[2] = tested on: catalepsy induced by haloperidol; assay: catalepsy (bar test), extra-pyramidal side effect liability, Compound 1 with haloperidol; conditions: Compound 1 3 mg/kg with haloperidol 0.1 & 0.17 mg/kg; 30, 60, 90 and 120 minutes after dosing; mice
Procedure: Using (7-(2,6-dichlorophenyl)-5-fluoro-2,3-dihydrobenzofuran-2-yl)methanamine (Compound 1) as an example, the present Example describes an experiment in which a compound of formula I was administered in combination with haloperidol to assess extra-pyramidal side effect liability, as represented by cataleptic behavior. [table] Mice were dosed with either the vehicle or a dose of haloperidol followed by a dose of either vehicle or a dose of Compound 1. Thirty, 60, 90 and 120 minutes after dosing, the forelegs are draped over a thin horizontal rod 1.75″ high. The number of seconds up to 60 sec for which the mouse remains on the bar is recorded at each test point and presented as the percent of maximum possible response (60 sec).

[3] = tested on: apomorphine-induced climbing; assay: apomorphine-induced climbing in mice, Compound 1 alone or with clozapine (Experiment 2); conditions: for ED50: Mus musculus, sc, apomorphine 1 mg/kg s.c., read-out: ED50 for apomorphine block
Procedure: as §1, §2

[4] = Compound 1 0.3, 1 & 3 mg/kg co-administered with clozapine 3 & 5.4 mg/kg

For NCC1Cc2cc(F)cc(-c3c(Cl)cccc3Cl)c2O1 (centres unmarked) [Compound 1, (7-(2,6-dichlorophenyl)-5-fluoro-2,3-dihydrobenzofuran-2-yl)methanamine], the “block of apomorphine induced climbing versus either compound alone” value ([1]; Compound 1 0.3, 1 & 3 mg/kg co-administered with haloperidol 0.17 mg/kg) was “greater block of apomorphine induced climbing”, the effect on stereotypy ([1]; Compound 1 0.3, 1 & 3 mg/kg co-administered with haloperidol 0.17 mg/kg, relative to haloperidol alone) was “no effect on stereotypy” and the ED50 ([1]; Experiment 1, Compound 1 alone) was 1.81 mg/kg. The ED50 ([1]; Experiment 1, co-administered with 0.1 mg/kg of haloperidol) was 1.49 mg/kg, the ED50 ([1]; Experiment 1, co-administered with 0.17 mg/kg of haloperidol) was 0.534 mg/kg and the “catalepsy, percent of maximum possible response (60 sec)” value [2] was “up to 45 % of maximum catalepsy”. For the same compound, the “block of apomorphine induced climbing versus either compound alone” value [3, 4] was “greater block of apomorphine induced climbing”, the effect on stereotypy [3, 4] was “no effect on stereotypy” and the ED50 ([3]; Experiment 2, Compound 1 alone) was 7.15 mg/kg. It also gave an ED50 ([3]; Experiment 2, co-administered with 3 mg/kg of clozapine) of 2.48 mg/kg and an ED50 ([3]; Experiment 2, co-administered with 5.4 mg/kg of clozapine) of 1.67 mg/kg.
